How the values were obtained:
[1] = Social conflict test after Jaekel (rank hierarchy); type: in vivo, Rhesusaffen
Description: Insbesondere konnten signifikante anxiolytische Effekte bei Verabreichung des Wirkstoffs in sozialen Konfliktsituationen bei Rhesusaffen festgestellt werden. Die experimentalle Grundlage für diesen Sozialkonflikt-Test analog J. Jaekel in Biologische Psychiatrie (Forschungsergebnisse), W. Kemp (Hrsg.), Springer Verlag, Heidelberg, 1986, ist die hierarchische Rangordnung bei Rhesusaffen. Der relative Rangstatus eines Tieres ist der bestimmende Faktor für interindividuelle Kommunikation, z.B. für Aggression oder wechselseitiges soziales Putzen. Normalerweise werden Tiere mit geringem Rangstatus von höher gestellten Grupenmitgliedern unterdrückt. Diese unterdrückten Tiere ziehen sich in eine soziale Isolierung zurück und vermeiden ängstlich jeden Sozialkontakt. Wiederholte Wirkstoffgaben in Dosen von 0,2 mg/kg p.o. bei Gruppen von 5 bzw. […] Diese Effekte werden als deutliche Anxiolyse angesehen.
Insbesondere konnten signifikante anxiolytische Effekte bei Verabreichung des Wirkstoffs in sozialen Konfliktsituationen bei Rhesusaffen im oben beschriebenen Sozialkonflikt-Test nach Jaekel festgestellt werden. […] Ebenso nahmen sie aktiv Kontakt auf und wurden zu Partnern beim Pflegen, obwohl sie vorher niemals Pflegepartner waren. Diese Effekte wurden sowohl bei Gruppen mit hohem Niveau an Sozialkontakten als auch bei Gruppen mit wenig Pflegepartnerschaften beobachtet. […] Wie zu erwarten wurde dieses ausgeprägte anxiolytische Profil bei den Standard-Beta-Rezeptoren-Blockern Oxprenolol nicht und bei Propanolol in weitaus geringerem Masse erst bei Beta-Rezeptoren blockierenden Dosierungen festgestellt. Dagegen weist das Racemat diesen Effekt in nicht ß-blockierend wirkenden Dosierungen auf.

[2] = system: präsynaptischen Serotonin-1 B-Rezeptors (5-HTIB); experiment: Antagonism at the presynaptic serotonin 1B receptor; conditions: for Selektivität (5-HT1B gegenüber 5-HT1A): compared with the racemate
[3] = Three-centre double-blind study in inpatients; type: in vivo, Menschen
Description: Ueberraschend ist also die Tatsache, dass das anxiolytische Profil dieses Wirkstoffs auch bei nicht-betarezeptorenblockierend wirkenden Dosierungen sowohl im Tiermodell als auch am Menschen überaus ausgeprägt ist. Letzteres bestätigen Untersuchungen an stationären Patienten.
Entsprechendes ist bei der Verwendung des (+)-Enantiomeren zu erwarten.

[4] = Complicated deep maze after Watson; type: in vivo, Ratten
Description: (§1) In Testmodellen an Rhesusaffen sowie an Ratten konnten weiterhin eine zusätzliche nootrope und antidepressive Wirkungskomponente festgestellt werden. So bewirkte (+)-1-isopropylamino-3-[o-(pyrrol-1-yl)-phenoxy]-2-propanol in einer Doppelblindstudie bei Rhesusaffen gegen Placebo im "Delayed-Matchingto-Sample-Test" (Zeit-verzögerte-Wahl-nach-Muster) gemäss der Methodik von H. F. Harlow et al., J. Comp. Physiol. Psychol. […] Dieser bedeutet diejenige Zeitverzögerung in Sekunden, nach der ein Affe einen Diskriminationserfolg von < 75 % hat. Weiterhin konnten die Vorzögerungszeiten für den Defizitbereich um durchschnittlich 20 Sekunden erhöht werden. Neben diesen nootropen Effekten konnten In diesem Test auch antidepressive Eigenschaften beobachtet werden. […] Die nootrope bzw. antidepressive Wirkungskomponente konnten ebenfalls bei Untersuchungen mit Ratten manifestiert werden. So wurden in einem komplizierten Tieflabyrinth analog dem Modell von J.B. Watson, Animal Education, Contrib. Psychol. Lab. Univ.

[5] = Geller test (foot-shock induced conflict, lever pressing for food); type: in vivo, Ratten; conditions: for anxiolytische Wirkung im Geller-Test: overall assessment
Description: Das charakteristische anxiolytische Profil von (+)-1-Isopropylamino-3-[o-(pyrrol-1-yl)-phenoxy]-2-propanol ergibt sich beispielsweise aus den Ergebnissen des Geller-Testes, [J. Geller. Psychopharmacologia, 3, S. 374 ff. […] Bei diesem Test werden die Füsse der Verscuchstiere beim Bedienen eines Hebels zur Nahrungsfreigabe periodisch Elektroschocks ausgesetzt. Normalerweise wird nur bei Verabreichung von hohen Dosen an Anxiolytika die Reaktion auf die Bestrafung unterdrückt. Bei einer Gruppe von Ratten, die eine Dosis ab 3 mg/kg p.o. von (+)-1-lsopropylamino-3-[o-(pyrrol-1-yl)-phenoxy]-2-propanol erhalten haben, reagieren bereits ab etwa 80 % der Versuchstiere mit einem markanten Anstieg der Hebelbedienungshäufigkeit während der Schockphase.
Bei einer Gruppe von 29 Ratten, die eine Dosis von 20 mg/kg p.o. von 1-lsopropylamino-3-[o-(pyrrol-1-yl)-phenoxy]-2-propanol erhalten haben, reagieren bereits 50 % der Versuchstiere mit einem markanten Anstieg der Hebelbedienungshäufigkeit während der Schockphase, wobei der Anstieg bei einzelnen Tieren 300 % betrug.

[6] = Inhibition of hyperactivity of rats kept in isolation (locomotor and exploratory behaviour, after Weinstock); type: in vivo, Ratten; conditions: isolated rats
Description: Das charakterische anxiolytische Profil von 1-Isopropylamino-3-[o-(pyrrol-1-yl)-phenoxyj-2-propanol ergibt sich beispielsweise aus der Hemmung der Hyperaktivität von Ratten, die in Isolation gehalten werden, gemessen an ihrem lokomotorischen und exploratorischen Verhalten, wobei maximale Effekte bei einer Dosierung von 0,01-0,1 mg/kg p.o. erzielt werden [analog der Methodik von R. Weinstock et al., Psychopharmacologia 30, 241ff. (1973). Die Hyperaktivität von isoliert gehaltenen Ratten konnte dagegen im Falle des Propranolols erste bei einer Dosis von 0,3 mg/kg p.o. maximal gehemmt werden.

[7] = Delayed-Matching-to-Sample test after Harlow, double-blind against placebo; type: in vivo, Rhesusaffen
Description: as §1, with “So bewirkte (+)-1-isopropylamino-3-[o-(pyrrol-1-yl)-phenoxy]-2-propanol in einer Doppelblindstudie bei Rhesusaffen gegen Placebo im "Delayed-Matchingto-Sample-Test" (Zeit-verzögerte-Wahl-nach-Muster) gemäss der Methodik von H.” left out

[8] = system: stratialer Dopamin-Rezeptoren; experiment: In vivo 3H-spiperone binding screening model after Bischoff; set-up: species or system Ratten; conditions: rats
Description: Ferner bewirkt (+)-1-Isopropylamino-3-[o-(pyrrol-1-yl)-phenoxy]-2-propanol an Ratten Im Screening-Modell nach S. Bischoff et al., Europ.

[9] = repeated doses of 0,1-0,3 mg/kg p.o., groups of 7 monkeys
[10] = repeated doses of 0,2 mg/kg p.o., groups of 5 or 7 monkeys

Q: For `C=CCOc1ccccc1OCC(O)CNC(C)C` (stereo not shown) [Oxprenolol, reference compound], which “Sozialkontakte von Affen mit geringer Rangordnung” value ([1]; 0,3-3,0 mg/kg p.o.) is on record?
A: The value was “keine Steigerung der Sozialkontakte”.

Q: And the “Selektivität (5-HT1B gegenüber 5-HT1A)” value [2]?
A: Its value is “weniger selektiv”.

Q: Which results are given for `CC(C)NCC(O)COc1ccccc1-n1cccc1` (racemic) [1-Isopropylamino-3-[o-(pyrrol-1-yl)-phenoxy]-2-propanol]?
A: cardiovaskuläre Effekte (ß-Blockade) ([3]; humans, low daily doses such as 2 mg and 4 mg p.o.): keine cardiovaskulären Effekte; anxiolytische Effekte ([3]; more than 100 inpatients, daily dose 2 mg p.o. compared with daily dose 4 mg p.o.): signifikante, mindestens ebenso potente anxiolytische Effekte; Sozialkontakte der rangniedrigsten Affen [1, 9]: Zunahme der Sozialkontakte; ängstliches Verhaltensmuster der Affen, die in der Rangordnung am niedrigsten eingeordnet sind [1, 9]: signifikanten Reduktion des ängstlichen Verhaltensmuster; nootrope und antidepressive Eigenschaften ([4]; racemate, at the doses used): keine aussagefähigen Beobachtungen; Versuchstiere mit einem markanten Anstieg der Hebelbedienungshäufigkeit während der Schockphase ([5]; group of 29 rats, 20 mg/kg p.o.): 50%; Anstieg der Hebelbedienungshäufigkeit bei einzelnen Tieren ([5]; rats, 20 mg/kg p.o., shock phase): 300%; anxiolytische Wirkung im Geller-Test ([5]; rats): starkes Anxiolytikum; Antagonismus am präsynaptischen Serotonin-1 B-Rezeptor [2]: potenter selektiver Antagonist; Dosierung, bei der maximale Effekte (Hemmung der Hyperaktivität) erzielt werden [6]: 0,01-0,1 mg/kg p.o.; nootrope und antidepressive Eigenschaften ([7]; racemate, at the doses used): keine aussagefähigen Beobachtungen

Q: For `CC(C)NCC(O)COc1ccccc1-n1cccc1` (single isomer, unassigned; (+)) [(+)-1-Isopropylamino-3-[o-(pyrrol-1-yl)-phenoxy]-2-propanol], which “cardiovaskuläre Effekte (ß-Blockade)” value ([3]; expected for the (+)-enantiomer, not tested) is on record?
A: Its value is “Entsprechendes”.

Q: What about the “Sozialkontakte der rangniedrigsten Affen” value [1, 10] of the same compound?
A: Its value is “nahmen sie aktiv soziale Kontakte auf”.

Q: What about the “ängstliches Verhaltensmuster der Affen, die in der Rangordnung am niedrigsten eingeordnet sind” value [1, 10] of the same compound?
A: The value was “signifikanten Reduktion”.

Q: And the “Orientierungsleistungen (Fehlerquote; nootrope Wirkung)” value ([4]; rats)?
A: Its value is “deutliche Verbesserung der Orientierungsleistungen”.

Q: What about the “Laufzeiten vom Start zum belohnten Ziel” value ([4]; rats, compared with placebo animals) of the same compound?
A: The value was “signifikant verkürzten Laufzeiten”.

Q: And the “Versuchstiere mit einem markanten Anstieg der Hebelbedienungshäufigkeit während der Schockphase” value ([5]; rats, dose from 3 mg/kg p.o.)?
A: Its value is ~80%.

Q: What about the “anxiolytische Wirkung im Geller-Test” value ([5]; rats) of the same compound?
A: The value was “starkes Anxiolytikum”.

Q: And the “^3H-Splperon-Bindung stratialer Dopamin-Rezeptoren” value [8]?
A: Its value is “dosisabhängig Erhöhungen”.

Q: And the “Erfolgsrate im Defizitbereich” value ([7]; 1 mg/kg p.o., against placebo, deficit range = delay after which discrimination success is < 75 %)?
A: Its value is “signifikant erhöhte Erfolgsrate”.

Q: And the “Motivation und Antrieb (antidepressive Eigenschaften)” value ([7]; rhesus monkeys)?
A: Its value is “deutliche Motivations-und Antriebssteigerungen”.

Q: And the “Erhöhung der Vorzögerungszeiten für den Defizitbereich” value ([7]; rhesus monkeys, average increase)?
A: The value was 20 Sekunden.

Q: Which “Sozialkontakte der Rhesusaffen mit niedrigem Rangstatus” value ([1]; 0,5-10,0 mg/kg p.o.) does the source give for `CC(C)NCC(O)COc1cccc2ccccc12` (stereo not shown) [Propranolol, reference compound] here?
A: The value was “relativ wenig beeinflusst”.

Q: What about the “Verhaltensänderung im Fussschocktest” value ([5]; rats, 20 mg/kg p.o.) of the same compound?
A: The value was “keiner signifikanten Verhaltensänderung”.

Q: What about the “Selektivität (5-HT1B gegenüber 5-HT1A)” value [2] of the same compound?
A: The value was “weniger selektiv”.

Q: What about the “Dosierung, bei der maximale Effekte (Hemmung der Hyperaktivität) erzielt werden” value [6] of the same compound?
A: The value was 0,3 mg/kg p.o.

From patent EP0265388A1, “Pyrrole derivatives, therapeutic compositions containing them and their use” (CIBA-GEIGY AG, priority 1986, dated 1988)
